# Measurements from ChEMBL document CHEMBL5338795, “Novel Triazoles with Potent and Broad-Spectrum Antifungal Activity In Vitro and In Vivo” (J Med Chem, 2023).
# How the values were obtained:
# [1] = tested on: CYP3A4; experiment: Selectivity index, ratio of MIC80 for antifungal activity against Candida albicans to IC50 for inhibition of CYP3A4 in human liver microsomes; type: toxicity; settings: read-out: Selectivity Index
# [2] = tested on: Candida parapsilosis; experiment: Antifungal activity against Candida parapsilosis ATCC 22019 assessed as reduction in fungal growth incubated for 24 hrs by CLSI based microdilution analysis; type: functional; settings: Lodderomyces parapsilosis
# [3] = tested on: Cryptococcus neoformans; experiment: Antifungal activity against Cryptococcus neoformans CGMCC3 1563 assessed as reduction in fungal growth incubated for 72 hrs by CLSI based microdilution analysis; type: functional
# [4] = tested on: Candida albicans; experiment: Antifungal activity against fluconazole-resistant Candida albicans 901 assessed as inhibition of fungal growth measured for 24 hrs by CLSI based microdilution analysis; type: functional
# [5] = tested on: Candida tropicalis; experiment: Antifungal activity against Candida tropicalis ATCC 750 assessed as reduction in fungal growth incubated for 24 hrs by CLSI based microdilution analysis; type: functional
# [6] = tested on: Candida albicans; experiment: Antifungal activity against fluconazole-resistant Candida albicans 13 assessed as inhibition of fungal growth measured for 24 hrs by CLSI based microdilution analysis; type: functional
# [7] = target: T1, Lanosterol 14-alpha demethylase (Candida albicans (strain SC5314 / ATCC MYA-2876) (Yeast), UniProt P10613); experiment: Inhibition of CYP51 in Candida albicans […] assessed as decrease in unknown sterol biosynthesis level at 1 times MIC80 incubated for 16 hrs by GC-MS analysis relative to control
# T1 sequence (P10613 whole entry): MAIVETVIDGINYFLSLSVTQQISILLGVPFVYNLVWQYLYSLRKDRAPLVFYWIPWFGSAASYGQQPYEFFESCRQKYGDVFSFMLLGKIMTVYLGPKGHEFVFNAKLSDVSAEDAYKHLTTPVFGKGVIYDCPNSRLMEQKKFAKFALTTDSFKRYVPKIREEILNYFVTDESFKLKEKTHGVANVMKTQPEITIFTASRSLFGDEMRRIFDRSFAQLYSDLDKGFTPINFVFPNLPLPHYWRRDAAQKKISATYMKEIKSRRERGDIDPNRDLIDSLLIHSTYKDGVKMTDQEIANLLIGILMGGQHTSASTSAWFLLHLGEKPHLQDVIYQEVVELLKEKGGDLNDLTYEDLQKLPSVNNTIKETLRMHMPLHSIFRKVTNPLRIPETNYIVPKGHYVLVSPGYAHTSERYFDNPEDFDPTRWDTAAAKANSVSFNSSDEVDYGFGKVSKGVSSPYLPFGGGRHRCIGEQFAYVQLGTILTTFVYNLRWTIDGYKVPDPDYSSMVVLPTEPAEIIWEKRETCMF
# [8] = tested on: Candida albicans; experiment: Antifungal activity against fluconazole-resistant Candida albicans 24D assessed as inhibition of fungal growth measured for 24 hrs by CLSI based microdilution analysis; type: functional
# [9] = tested on: Candida albicans; experiment: Antifungal activity against Candida albicans SC5314 assessed as reduction in fungal growth incubated for 24 hrs by CLSI based microdilution analysis; type: functional
# [10] = tested on: Candida albicans; experiment: Induction of resistance development in Candida albicans SC5314 assessed as fold increase in MIC treated over 20 serial passages by microdilution assay; type: functional
# [11] = target: T1, Lanosterol 14-alpha demethylase; experiment: Inhibition of CYP51 in Candida albicans […] assessed as decrease in ergosterol biosynthesis level at 1 times MIC80 incubated for 16 hrs by GC-MS analysis (Rvb=67.2%)
# [12] = tested on: Candida albicans; experiment: Antifungal activity against fluconazole-resistant Candida albicans 102 assessed as inhibition of fungal growth measured for 24 hrs by CLSI based microdilution analysis; type: functional
# [13] = tested on: Meyerozyma guilliermondii; experiment: Antifungal activity against Meyerozyma guilliermondii ATCC 6260 assessed as reduction in fungal growth incubated for 24 hrs by CLSI based microdilution analysis; type: functional
# [14] = Hemolytic activity in mouse RBC assessed as hemolysis at 100 microg/ml incubated for 60 mins relative to control; type: toxicity, cell-based, Erythrocyte; settings: red blood cells (erythrocytes), at 100 µg/mL, read-out: Activity
# [15] = tested on: Candida albicans; experiment: Induction of resistance development in Candida albicans SC5314 assessed as increase in MIC treated over 8 serial passages by microdilution assay; type: functional
# [16] = tested on: Aspergillus fumigatus; experiment: Antifungal activity against Aspergillus fumigatus CGMCC3 7795 assessed as reduction in fungal growth incubated for 48 hrs by CLSI based microdilution analysis; type: functional
# [17] = tested on: Candida albicans; experiment: Antifungal activity against fluconazole-resistant Candida albicans 112869 assessed as inhibition of fungal growth measured for 24 hrs by CLSI based microdilution analysis; type: functional
# [18] = tested on: Candida albicans; experiment: Antifungal activity against fluconazole-resistant Candida albicans 15 assessed as inhibition of fungal growth measured for 24 hrs by CLSI based microdilution analysis; type: functional
# [19] = tested on: Nakaseomyces glabratus; experiment: Antifungal activity against Candida glabrata ATCC 15126 assessed as reduction in fungal growth incubated for 24 hrs by CLSI based microdilution analysis; type: functional
# [20] = tested on: Candida albicans; experiment: Potency index, ratio of fluconazole MIC80 to test compound MIC for antifungal activity against Candida albicans SC5314 assessed as reduction in fungal growth incubated for 24 hrs by CLSI based microdilution analysis; type: functional
# [21] = tested on: Candida albicans; experiment: Potency index, ratio of itraconazole MIC80 to test compound MIC for antifungal activity against Candida albicans SC5314 assessed as reduction in fungal growth incubated for 24 hrs by CLSI based microdilution analysis; type: functional
# [22] = tested on: Candida albicans; experiment: Potency index, ratio of voriconazole MIC80 to test compound MIC for antifungal activity against Candida albicans SC5314 assessed as reduction in fungal growth incubated for 24 hrs by CLSI based microdilution analysis; type: functional
# [23] = target: Cytochrome P450 3A4 (Homo sapiens, UniProt P08684); experiment: Inhibition of CYP3A4 in human liver microsomes using testosterone as substrate preincubated for 5 mins followed by NADPH addition and measured after 5 mins by LC-MS/MS analysis; type: ADME, Microsome
# Cytochrome P450 3A4, sequence (P08684 whole entry): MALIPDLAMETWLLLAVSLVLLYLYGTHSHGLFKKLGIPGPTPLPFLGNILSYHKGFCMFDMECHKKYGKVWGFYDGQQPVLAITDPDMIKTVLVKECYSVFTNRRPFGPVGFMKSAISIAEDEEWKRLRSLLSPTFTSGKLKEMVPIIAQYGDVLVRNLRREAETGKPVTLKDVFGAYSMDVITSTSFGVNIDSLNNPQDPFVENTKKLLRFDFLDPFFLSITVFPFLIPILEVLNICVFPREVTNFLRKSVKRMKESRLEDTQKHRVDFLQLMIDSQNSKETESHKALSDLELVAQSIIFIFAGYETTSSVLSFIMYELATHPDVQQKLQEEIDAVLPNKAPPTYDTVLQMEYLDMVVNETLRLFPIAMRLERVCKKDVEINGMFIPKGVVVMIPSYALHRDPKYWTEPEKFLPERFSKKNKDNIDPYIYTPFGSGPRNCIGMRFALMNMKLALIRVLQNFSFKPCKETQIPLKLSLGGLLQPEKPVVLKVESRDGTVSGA
# [24] = tested on: Candida albicans; experiment: In-vivo antifungal activity against multidrug-resistant Candida albicans 24D infected in ICR mouse model assessed as median survival time at 1 mg/kg, ip administered once daily pretreated for 24 hrs followed by infection and measured every 2 hrs for 5 days; type: functional; settings: time 144 hrs
# [25] = tested on: Candida albicans; experiment: In-vivo antifungal activity against Candida albicans […] infected in ICR mouse model assessed as median survival time at 1 mg/kg, ip administered once daily pretreated for 24 hrs followed by infection and measured every 2 hrs for 5 days; type: functional; settings: time 144 hrs
SMILES,MIC80 [2],MIC80 [3],MIC80 [4],MIC80 [5],MIC80 [6],MIC80 [8],MIC80 [9],MIC80 [12],MIC80 [13],"hemolysis at 1 h, 100 microg/ml [14]",MIC80 [16],MIC80 [17],MIC80 [18],MIC80 [19],also measured
OC(Cn1cncn1)(Cn1cncn1)c1ccc(F)cc1F [FLUCONAZOLE],1.25 µg/mL,1.25 µg/mL,> 100 µg/mL,2.5 µg/mL,> 100 µg/mL,> 100 µg/mL,0.5 µg/mL,> 100 µg/mL,1.25 µg/mL,1.7%,> 100 µg/mL,> 100 µg/mL,32 µg/mL,2.5 µg/mL,selectivity ratio [1]: 25; inhibition (INH) [7]: 24.78%; fold change (FC) [10]: 100; inhibition (INH) [11]: 17.61%; fold change (FC) [15]: 10
OC(CN1CCN(CCn2ccc3cc(Br)ccc32)CC1)(Cn1cncn1)c1ccc(F)cc1F (stereo unspecified),0.015 µg/mL,0.015 µg/mL,1.25 µg/mL,0.156 µg/mL,0.015 µg/mL,0.031 µg/mL,0.015 µg/mL,0.015 µg/mL,0.015 µg/mL,1.2%,0.625 µg/mL,0.062 µg/mL,0.312 µg/mL,0.156 µg/mL,Ratio [20]: 32; Ratio [21]: 4; Ratio [22]: 4
OC(CN1CCN(CCCn2ccc3cc(Br)ccc32)CC1)(Cn1cncn1)c1ccc(F)cc1F (stereo unspecified),0.062 µg/mL,0.031 µg/mL,1.25 µg/mL,0.312 µg/mL,0.031 µg/mL,0.062 µg/mL,0.031 µg/mL,0.062 µg/mL,0.015 µg/mL,5.9%,0.625 µg/mL,0.125 µg/mL,1.25 µg/mL,0.312 µg/mL,IC50 [23]: 130 nM
C[C@@H](c1ncncc1F)[C@](O)(Cn1cncn1)c1ccc(F)cc1F [VORICONAZOLE],0.062 µg/mL,0.031 µg/mL,> 100 µg/mL,0.312 µg/mL,25 µg/mL,> 100 µg/mL,0.062 µg/mL,> 100 µg/mL,0.062 µg/mL,,0.312 µg/mL,> 100 µg/mL,0.625 µg/mL,0.312 µg/mL,Time [24]: 9 days; Time [25]: 7 days
